What was measured:
mouse CB2 (mCB2) = mouse CB2 (mCB2) (Mus musculus, UniProt P47936); assay: Radioligand binding, displacement of [3H]CP-55,940 from mouse spleen membranes; settings: for lower affinity for CB2 compared to 6b: mCB2 Ki relative to 6b
rat CB1 (rCB1) = rat CB1 (rCB1) (Rattus norvegicus, UniProt P20272); assay type: binding
rCB1 receptor = rCB1 receptor (Rattus norvegicus, UniProt P20272); assay type: cell-based
rats [1] = assay: Hypothermia test, core body temperature over 6 hours after injection; assay type: in vivo; settings: rat, 0.1 mg/kg s.c.
rats [2] = assay: Antinociception, tail-flick procedure over 6 hours after injection; settings: rat
[3] = six-atom versus seven-atom ω-bromo side chain

Sequence of rat CB1 (rCB1) (P20272 whole entry): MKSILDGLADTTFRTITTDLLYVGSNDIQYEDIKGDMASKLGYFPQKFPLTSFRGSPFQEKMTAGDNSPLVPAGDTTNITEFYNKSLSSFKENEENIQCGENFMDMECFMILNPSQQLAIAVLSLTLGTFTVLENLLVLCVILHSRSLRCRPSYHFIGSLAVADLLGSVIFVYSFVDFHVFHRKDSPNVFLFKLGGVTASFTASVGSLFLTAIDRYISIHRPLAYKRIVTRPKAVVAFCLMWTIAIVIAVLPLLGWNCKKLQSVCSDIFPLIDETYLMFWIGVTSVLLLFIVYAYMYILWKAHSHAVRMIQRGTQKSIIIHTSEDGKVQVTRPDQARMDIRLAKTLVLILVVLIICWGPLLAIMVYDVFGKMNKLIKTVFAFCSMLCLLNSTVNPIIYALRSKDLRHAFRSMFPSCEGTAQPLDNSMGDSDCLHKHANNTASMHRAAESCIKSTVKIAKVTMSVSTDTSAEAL
Sequence of mouse CB2 (mCB2) (P47936 whole entry): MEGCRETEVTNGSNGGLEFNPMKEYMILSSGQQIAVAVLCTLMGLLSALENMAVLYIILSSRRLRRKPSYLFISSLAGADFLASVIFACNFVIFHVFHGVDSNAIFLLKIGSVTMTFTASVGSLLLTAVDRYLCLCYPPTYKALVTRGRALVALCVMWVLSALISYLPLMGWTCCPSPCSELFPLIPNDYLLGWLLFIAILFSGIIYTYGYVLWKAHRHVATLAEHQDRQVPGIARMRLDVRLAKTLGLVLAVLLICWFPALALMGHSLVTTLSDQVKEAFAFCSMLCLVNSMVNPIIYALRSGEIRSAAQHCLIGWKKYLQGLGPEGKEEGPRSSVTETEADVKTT
Sequence of rCB1 receptor (P20272 whole entry): as the sequence (P20272 whole entry) above

In the case of `CCCC/C=C\C1(c2cc(O)c3c(c2)OC(C)(C)[C@@H]2CCC(=O)C[C@@H]32)CCCC1` [6a, (6aR, 10aR)-3-[1-(1,2-cis-Hexen-1-yl)-cyclopent-1-yl]-6,6a,7,8,10,10a-hexahydro-1-hydroxy-6,6-dimethyl-9H-dibenzo[b,d]pyran-9-one], the “lower affinity for CB2 compared to 6b” value (mouse CB2 (mCB2)) is reported as 5 fold.

`CCCCCCC1(c2cc(O)c3c(c2)OC(C)(C)[C@@H]2CCC(=O)C[C@@H]32)SCCS1` [6c, (6aR, 10aR)-3-(2-Hexyl-1,3-dithiolan-2-yl)-6,6a,7,8,10,10a-hexahydro-1-hydroxy-6,6-dimethyl-9H-dibenzo[b,d]pyran-9-one] was tested, and the “lower affinity for CB1 compared to 6b” value (rat CB1 (rCB1); rCB1 Ki relative to 6b) was 4 fold and the “lower affinity for CB2 compared to 6b” value (mouse CB2 (mCB2)) was 44 fold.

`CCCC/C=C\C1(c2cc(O)c3c(c2)OC(C)(C)[C@@H]2CCC(=O)C[C@@H]32)CCC1` [6d, (6aR, 10aR)-3-[1-(1,2-cis-Hexen-1-yl)-cyclobut-1-yl]-6,6a,7,8,10,10a-hexahydro-1-hydroxy-6,6-dimethyl-9H-dibenzo[b,d]pyran-9-one] was tested, and the “selectivity for CB1 over CB2” value (rat CB1 (rCB1); from Ki rCB1 and mCB2, as stated in text) was 11 fold.

`CCCCCCC1(c2cc(O)c3c(c2)OC(C)(C)[C@@H]2CC[C@@H](O)C[C@@H]32)CCC1` [7e-β, (6aR, 9R, 10aR)-3-(1-Hexyl-cyclobut-1-yl)-6a,7,8,9,10,10a-hexahydro-6,6-dimethyl-6H-dibenzo[b,d]pyran-1,9 diol] was tested, and the EC50 (rCB1 receptor) was 1.5 ± 0.3 nM, the “functional efficacy at CB1” value (rCB1 receptor; cAMP assay) was “full agonist” and the “onset of drug effect (hypothermia) after injection” value (rats [1]) was 60 to 90 min. The “time of peak effects (hypothermia) after injection” value (rats [1]) was 300 min, the “reduction of core body temperature” value (rats [1]; from average baseline of 38.48±0.06°C) was “up to 4.2±0.5 °C” and the “antinociception, % of the maximum possible effect” value (shortened to “antinociception, %”) (rats [2]; 0.1 mg/kg 7e-β after 30-min pretreatment with 1.0 mg/kg rimonabant (SR141716A)) was 85.4±5.8%. The “antinociception, %” value (rats [2]; 0.1 mg/kg 7e-β after 30-min pretreatment with 3.0 mg/kg rimonabant (SR141716A)) was 48.0±10.9%, the “antinociception, %” value (rats [2]; 0.1 mg/kg 7e-β alone, different group of animals) was 100% and the “doses with significant antinociceptive effects” value (rats [2]; s.c., tail-flick) was 0.01 to 0.3 mg/kg. For the same compound, the “onset of the antinociceptive effects after injection” value (rats [2]; s.c., tail-flick) was 60 to 120 min and the “time course of antinociceptive effects” value (rats [2]; s.c., tail-flick, 6 hour test period) was “generally increased over the 6 hour test period”.

`CC1(C)Oc2cc(C3(CCCCBr)CCCC3)cc(O)c2[C@@H]2CC(=O)CC[C@H]21` [15a, (6aR,10aR)-3-[1-(4-Bromobutyl)cyclopentyl]-6,6a,7,8,10,10a-hexahydro-1-hydroxy-6,6-dimethyl-9H-dibenzo[b,d]pyran-9-one] was tested, and the “reduction in affinity for CB1” value (rat CB1 (rCB1); [3]) was 13 fold and the “reduction in affinity for CB2” value (mouse CB2 (mCB2); [3]) was 5 fold.

For `CN1CC[C@]23c4c5ccc(O)c4O[C@H]2[C@@H](O)C=C[C@H]3[C@H]1C5` [morphine, reference compound], the “time after injection by which antinociceptive effects were decreasing” value (rats [2]; s.c., tail-flick) was 3 h, the “time of peak antinociceptive effects after injection” value (rats [2]; s.c., tail-flick) was 30 to 120 min and the “antinociceptive effects lower than 7e-β” value (rats [2]; tail-flick, relative to 7e-β) was “approximately 100 fold”.
